From US10253002B2, “Compounds and methods of treating infections” (Neoculi Pty Ltd., priority 2013, dated 2019)
Values after ≈ are worked out from the molar mass of the structure shown. Values joined by “and” are separate entries in the source; they are usually repeats but may differ in a detail not shown here. Equal values may be shown once. Read-outs that look alike come from different tables or passages of the source.

Assays:
Test in all cases: Broth microdilution MIC, Example 7 (NCL812 and analogues)
VRE = assay type: cell-based, Enterococcus spp.; conditions: for activity against VRE among analogues: MIC testing, two VRE strains; for MIC: Enterococcus, VRE, 24 h
Protocol: (§1) Minimum inhibitory concentrations (μg/ml) were determined using the broth microdilution method recommended by the Clinical and Laboratory Standards Institute (CLSI). MIC breakpoints were determined by visual assessment and then confirmed using an ELISA plate reader, measuring absorbance levels at 600 nm. Bacterial growth (turbidity) in the wells with antimicrobial was compared with the amount of growth (turbidity) in the growth-control well (containing no antimicrobial). All isolates were tested in duplicate, if there was a difference of greater than one two-fold dilution in the results, the test was repeated a third time. The purity of the isolates was closely monitored during testing by subculturing the prepared bacterial inoculum onto SBA (sheep blood agar). […] The MIC50, MIC20 and MIC range (minimum and maximum) were calculated for each of the bacterial groups.
(§2) MICs were determined against two MRSA strains, two VRE strains and one strain each of E. coli and Pseudomonas aeruginosa.

MRSA = assay type: cell-based, Staphylococcus aureus; conditions: for activity against MRSA among analogues: MIC testing, two MRSA strains; for MIC: Staphylococcus aureus
Protocol: as §1, §2

Pseudomonas aeruginosa = assay type: cell-based
Escherichia coli = assay type: cell-based; conditions: 24 hours
[1] = isolate VRE 1, 24 hours, 1st and 2nd replicate rows
[2] = isolate VRE 2, 24 hours, 1st and 2nd replicate rows
[3] = isolate MRSA 1, 24 hours, 1st and 2nd replicate rows
[4] = isolate MRSA 2, 24 hours, 1st and 2nd replicate rows
[5] = VRE 1, 24 hours, duplicate lines per compound
[6] = VRE 2, 24 hours, duplicate lines per compound
[7] = MRSA 1, 24 hours, duplicate lines per compound
[8] = MRSA 2, 24 hours, duplicate lines per compound
[9] = P. aeruginosa, duplicate lines per compound
[10] = E. coli, duplicate lines per compound

SMILES	MIC (μg/ml) at 24 hours, VRE 1 (VRE; [1]) [µg/mL]	MIC (μg/ml) at 24 hours, VRE 2 (VRE; [2]) [µg/mL]	MIC (μg/ml) at 24 hours, MRSA 1 (MRSA; [3]) [µg/mL]	MIC (μg/ml) at 24 hours, MRSA 2 (MRSA; [4]) [µg/mL]	MIC (μg/ml) at 24 hours, P. aeruginosa (Pseudomonas aeruginosa; 1st and 2nd replicate rows) [µg/mL]	MIC (μg/ml) at 24 hours, E. coli (Escherichia coli; 1st and 2nd replicate rows) [µg/mL]	MIC (μg/ml) at 24 hours, VRE 1 (VRE; VRE 1, 24 hours) [µg/mL]	MIC (μg/ml) at 24 hours, VRE 2 (VRE; VRE 2, 24 hours)	MIC (μg/ml) at 24 hours, MRSA 1 (MRSA; MRSA 1, 24 hours)	MIC (μg/ml) at 24 hours, MRSA 2 (MRSA; MRSA 2, 24 hours) [µg/mL]	MIC (μg/ml) at 24 hours, P. aeruginosa (Pseudomonas aeruginosa; P. aeruginosa) [µg/mL]	MIC (μg/ml) at 24 hours, E. coli (Escherichia coli; E. coli) [µg/mL]	MIC (μg/ml) at 24 hours, VRE 1 (VRE; [5]) [µg/mL]	MIC (μg/ml) at 24 hours, VRE 2 (VRE; [6]) [µg/mL]	MIC (μg/ml) at 24 hours, MRSA 1 (MRSA; [7])	MIC (μg/ml) at 24 hours, MRSA 2 (MRSA; [8]) [µg/mL]	MIC (μg/ml) at 24 hours, P. aeruginosa (Pseudomonas aeruginosa; [9]) [µg/mL]	MIC (μg/ml) at 24 hours, E. coli (Escherichia coli; [10]) [µg/mL]	other results
NC(=O)N/N=C/c1ccc(Cl)cc1 [NCL014]	>128	>128	>128	>128	>128	>128	–	–	–	–	–	–	–	–	–	–	–	–	–
CC(=NNC(=N)NN=C(C)c1ccccn1)c1ccccn1.Cl [NCL 172]	–	–	–	–	–	–	>128	>128 µg/mL	128 µg/mL	64	>128	>128	–	–	–	–	–	–	–
O=C(NN=Cc1ccc(C(F)(F)F)cc1)NN=Cc1ccc(C(F)(F)F)cc1 [NCL012]	>128	>128	>128	>128	>128	>128	–	–	–	–	–	–	–	–	–	–	–	–	–
CC(C)COC(=O)N(N=Cc1ccc(Cl)cc1)C(N)=NN=Cc1ccc(Cl)cc1 [NCL225]	–	–	–	–	–	–	>128	>128 µg/mL	>128 µg/mL	>128	>128	>128	–	–	–	–	–	–	–
Cl.N#Cc1cccc(C=NNC(=N)NN=Cc2cccc(C#N)c2)c1 [NCL026]	>128	>128	>128	>128	>128	>128	–	–	–	–	–	–	–	–	–	–	–	–	–
Cl.N=C(NN=Cc1ccc(OC(F)(F)F)cc1)NN=Cc1ccc(OC(F)(F)F)cc1 [NCL 160]	–	–	–	–	–	–	–	–	–	–	–	–	16	64	32 µg/mL and 64 µg/mL	128	>128	>128	–
NC(=N/N=C/c1ccc(Cl)cc1)N(/N=C/c1ccc(Cl)cc1)C(=O)NCc1ccco1 [NCL229]	–	–	–	–	–	–	>128	>128 µg/mL	>128 µg/mL	>128	>128	>128	–	–	–	–	–	–	–
Cl.N=C(NN=C(C(=O)O)c1ccccc1)NN=C(C(=O)O)c1ccccc1 [NCL 167]	–	–	–	–	–	–	–	–	–	–	–	–	>128	>128	>128 µg/mL	>128	>128	>128	–
N#Cc1cccc(/C=N/NC(=O)N/N=C/c2cccc(C#N)c2)c1 [NCL009]	>128	>128	>128	>128	>128	>128	–	–	–	–	–	–	–	–	–	–	–	–	–
Cl.N=C(NN=Cc1ccc2[nH]ccc2c1)NN=Cc1ccc2[nH]ccc2c1 [NCL 146]	–	–	–	–	–	–	–	–	–	–	–	–	16	16	8 µg/mL	16	>128	>128	–
N#Cc1ccccc1/C=N/NC(N)=O [NCL050]	>128	>128	>128	>128	>128	>128	–	–	–	–	–	–	–	–	–	–	–	–	–
Cl.N=C(NN=Cc1ccc(C=CCC(=O)O)cc1)NN=Cc1ccc(C=CCC(=O)O)cc1 [NCL 148]	–	–	–	–	–	–	–	–	–	–	–	–	>128	>128	>128 µg/mL	>128	>128	>128	–
N#Cc1cccc(/C=N/NC(=S)N/N=C/c2cccc(C#N)c2)c1 [NCL065]	>128	>128	>128	>128	>128	>128	–	–	–	–	–	–	–	–	–	–	–	–	–
C/C(=N\Nc1cc(N/N=C(\C)c2ccc(Cl)cc2)nc(N)n1)c1ccc(Cl)cc1 [NCL204]	–	–	–	–	–	–	–	–	8 µg/mL (≈ 18.7 µM)	8 (≈ 18.7 µM)	–	–	–	–	–	–	–	–	MIC (VRE; read-out: MIC (μg/ml) at 24 hours VRE 1, VRE 1, 24 hours): 64 µg/mL (≈ 149 µM); MIC (VRE; read-out: MIC (μg/ml) at 24 hours VRE 2, VRE 2, 24 hours): > 128 µg/mL; activity against VRE among analogues (VRE): greatest activity; activity against MRSA among analogues (MRSA): greatest activity; MIC (MRSA; MRSA, 24 h, read-out: MIC (μg/ml) at 24 hours MRSA 1, MRSA 1, 24 hours): 4 µg/mL (≈ 9.34 µM); MIC (MRSA; MRSA, 24 h, read-out: MIC (μg/ml) at 24 hours MRSA 2, MRSA 2, 24 hours): 4 µg/mL (≈ 9.34 µM); MIC (MRSA; MRSA, bioassay ranking, MRSA, read-out: MRSA): 6 µg/mL (≈ 14 µM); MIC (Pseudomonas aeruginosa; Pseudomonas aeruginosa, 24 h, read-out: MIC (μg/ml) at 24 hours P. aeruginosa, P. aeruginosa, 24 hours): > 128 µg/mL; MIC (Escherichia coli; Escherichia coli, read-out: MIC (μg/ml) at 24 hours E. coli, E. coli): > 128 µg/mL
Cc1ccc(C=NNC(=N)NN=Cc2ccc(Cl)cc2)cc1.Cl [NCL076]	–	–	–	–	–	–	–	–	–	–	–	–	>128	>128	>128 µg/mL	>128	>128	>128	–

More lines, main results first:

MIC (μg/ml) at 24 hours, VRE 1 (VRE; [1]) [µg/mL]	MIC (μg/ml) at 24 hours, VRE 2 (VRE; [2]) [µg/mL]	MIC (μg/ml) at 24 hours, MRSA 1 (MRSA; [3]) [µg/mL]	MIC (μg/ml) at 24 hours, MRSA 2 (MRSA; [4]) [µg/mL]	MIC (μg/ml) at 24 hours, P. aeruginosa (Pseudomonas aeruginosa; 1st and 2nd replicate rows) [µg/mL]	MIC (μg/ml) at 24 hours, E. coli (Escherichia coli; 1st and 2nd replicate rows) [µg/mL]	MIC (μg/ml) at 24 hours, VRE 1 (VRE; VRE 1, 24 hours) [µg/mL]	MIC (μg/ml) at 24 hours, VRE 2 (VRE; VRE 2, 24 hours)	MIC (μg/ml) at 24 hours, MRSA 1 (MRSA; MRSA 1, 24 hours)	MIC (μg/ml) at 24 hours, MRSA 2 (MRSA; MRSA 2, 24 hours) [µg/mL]	MIC (μg/ml) at 24 hours, P. aeruginosa (Pseudomonas aeruginosa; P. aeruginosa) [µg/mL]	MIC (μg/ml) at 24 hours, E. coli (Escherichia coli; E. coli) [µg/mL]	MIC (μg/ml) at 24 hours, VRE 1 (VRE; [5]) [µg/mL]	MIC (μg/ml) at 24 hours, VRE 2 (VRE; [6]) [µg/mL]	MIC (μg/ml) at 24 hours, MRSA 1 (MRSA; [7])	MIC (μg/ml) at 24 hours, MRSA 2 (MRSA; [8]) [µg/mL]	MIC (μg/ml) at 24 hours, P. aeruginosa (Pseudomonas aeruginosa; [9]) [µg/mL]	MIC (μg/ml) at 24 hours, E. coli (Escherichia coli; [10]) [µg/mL]	SMILES	other results
>128	>128	>128	>128	>128	>128	–	–	–	–	–	–	–	–	–	–	–	–	Cl.N=C(N/N=C/c1ccccc1Cl)N/N=C/c1ccccc1Cl [NCL020]	–
–	–	–	–	–	–	–	–	–	–	–	–	64	128	32 µg/mL	32	>128	>128	Cl.N=C(NN=Cc1cccc(O)c1O)NN=Cc1cccc(O)c1O [NCL101]	activity against VRE among analogues (VRE): greatest activity; activity against MRSA among analogues (MRSA): greatest activity
–	–	–	–	–	–	–	–	–	–	–	–	>128	>128	>128 µg/mL	>128	>128	>128	Cl.N=C(N/N=C/c1cc(F)ccc1F)N/N=C/c1cc(F)ccc1F [NCL 118]	–
–	–	–	–	–	–	>128	>128 µg/mL	>128 µg/mL	>128	>128	>128	–	–	–	–	–	–	CC(=O)Nc1ccc(/C=N/Nc2cc(N/N=C/c3ccc(NC(C)=O)cc3)nc(N)n2)cc1 [NCL223]	–
–	–	–	–	–	–	>128	>128 µg/mL	>128 µg/mL	>128	>128	>128	–	–	–	–	–	–	Nc1nc(N/N=C/c2ccc(O)cc2)nc(N/N=C/c2ccc(O)cc2)n1 [NCL211]	–
–	–	–	–	–	–	>128	>128 µg/mL	16 µg/mL and 32 µg/mL	32 (≈ 87.8 µM)	>128	>128	–	–	–	–	–	–	Nc1nc(N/N=C/c2ccccc2O)nc(N/N=C/c2ccccc2O)n1 [NCL207]	activity against MRSA among analogues (MRSA): greatest activity; MRSA (MRSA; bioassay ranking, MRSA): 28 µg/mL
–	–	–	–	–	–	128 (≈ 273 µM)	32 µg/mL and 64 µg/mL	>128 µg/mL	>128	>128	>128	–	–	–	–	–	–	Nc1nc(N/N=C/c2ccc(C(F)(F)F)cc2)nc(N/N=C/c2ccc(C(F)(F)F)cc2)n1 [NCL210]	activity against VRE among analogues (VRE): greatest activity
–	–	–	–	–	–	–	–	–	–	–	–	>128	>128	>128 µg/mL	>128	>128	>128	Cl.N=C(N/N=C/c1ccccc1Br)N/N=C/c1ccccc1Br [NCL 129]	–
